Assay results from patent publication US20230257372A1 (CHONG KUN DANG PHARMACEUTICAL CORP., priority 2020, published 2023).
Where two headings read alike, the source gives them in different places.

Tests used:
human recombinant HDAC1 = target: T1, human recombinant HDAC1 (Homo sapiens, UniProt Q13547); assay: HDAC1 enzyme activity inhibition (HDAC Fluorimetric Drug Discovery Kit); format: biochemical; details: read-out: HDAC1
T1 construct: purchased Enzo Life Science, Inc. BML-SE456
Method in brief: (§1)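 Fluorimetric deacetylase read-out: after 30 min with Developer II following a 60 min, 30° C reaction of recombinant enzyme ([…]) with 10 μM substrate, across five-fold serial compound dilutions.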

human recombinant HDAC6 = target: T2, human recombinant HDAC6 (Homo sapiens, UniProt Q9UBN7); assay: HDAC6 enzyme activity inhibition (HDAC Fluorimetric Drug Discovery Kit); format: biochemical
T2 construct: purchased Calbiochem Inc. 382180
T2 sequence (Q9UBN7 1-1215): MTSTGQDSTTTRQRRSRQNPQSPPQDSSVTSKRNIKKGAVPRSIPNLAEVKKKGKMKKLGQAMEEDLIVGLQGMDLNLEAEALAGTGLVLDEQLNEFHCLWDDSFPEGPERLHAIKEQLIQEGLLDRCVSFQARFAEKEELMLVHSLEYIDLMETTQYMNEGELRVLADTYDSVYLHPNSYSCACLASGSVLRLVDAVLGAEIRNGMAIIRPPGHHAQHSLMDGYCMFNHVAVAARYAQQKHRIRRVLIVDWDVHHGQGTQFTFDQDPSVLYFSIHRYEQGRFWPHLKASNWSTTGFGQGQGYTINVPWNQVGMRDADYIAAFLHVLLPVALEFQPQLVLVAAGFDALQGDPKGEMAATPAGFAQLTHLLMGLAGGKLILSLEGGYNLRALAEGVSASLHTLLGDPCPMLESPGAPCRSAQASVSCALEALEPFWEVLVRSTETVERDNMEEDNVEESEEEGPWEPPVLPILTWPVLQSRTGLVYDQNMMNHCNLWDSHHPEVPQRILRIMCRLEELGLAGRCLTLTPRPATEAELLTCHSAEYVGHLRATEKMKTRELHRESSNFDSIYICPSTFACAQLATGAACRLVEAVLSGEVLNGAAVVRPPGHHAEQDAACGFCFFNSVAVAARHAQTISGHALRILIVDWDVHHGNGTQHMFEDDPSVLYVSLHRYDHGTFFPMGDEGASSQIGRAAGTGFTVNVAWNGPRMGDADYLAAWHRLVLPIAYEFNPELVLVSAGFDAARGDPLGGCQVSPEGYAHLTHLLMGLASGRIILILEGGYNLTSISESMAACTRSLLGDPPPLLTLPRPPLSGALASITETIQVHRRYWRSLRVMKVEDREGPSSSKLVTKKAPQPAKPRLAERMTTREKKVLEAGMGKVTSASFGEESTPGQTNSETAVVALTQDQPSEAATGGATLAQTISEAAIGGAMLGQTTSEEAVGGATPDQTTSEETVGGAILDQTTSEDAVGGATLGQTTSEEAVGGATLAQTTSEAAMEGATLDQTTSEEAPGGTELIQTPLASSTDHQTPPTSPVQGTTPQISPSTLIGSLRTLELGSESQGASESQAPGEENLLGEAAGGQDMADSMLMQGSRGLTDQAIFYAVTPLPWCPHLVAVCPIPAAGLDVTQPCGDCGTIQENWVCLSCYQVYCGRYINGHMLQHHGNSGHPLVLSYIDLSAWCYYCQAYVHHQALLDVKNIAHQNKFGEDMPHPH
Method in brief: as §1

[1] = human recombinant HDAC1, IC50 calculated with GraphPad Prism
[2] = human recombinant HDAC6, IC50 calculated with GraphPad Prism
[3] = human recombinant HDAC1, Fluor de Lys substrate, 30° C. 60 minutes
[4] = human recombinant HDAC6, same protocol as HDAC1

T1 sequence (Q13547 whole entry): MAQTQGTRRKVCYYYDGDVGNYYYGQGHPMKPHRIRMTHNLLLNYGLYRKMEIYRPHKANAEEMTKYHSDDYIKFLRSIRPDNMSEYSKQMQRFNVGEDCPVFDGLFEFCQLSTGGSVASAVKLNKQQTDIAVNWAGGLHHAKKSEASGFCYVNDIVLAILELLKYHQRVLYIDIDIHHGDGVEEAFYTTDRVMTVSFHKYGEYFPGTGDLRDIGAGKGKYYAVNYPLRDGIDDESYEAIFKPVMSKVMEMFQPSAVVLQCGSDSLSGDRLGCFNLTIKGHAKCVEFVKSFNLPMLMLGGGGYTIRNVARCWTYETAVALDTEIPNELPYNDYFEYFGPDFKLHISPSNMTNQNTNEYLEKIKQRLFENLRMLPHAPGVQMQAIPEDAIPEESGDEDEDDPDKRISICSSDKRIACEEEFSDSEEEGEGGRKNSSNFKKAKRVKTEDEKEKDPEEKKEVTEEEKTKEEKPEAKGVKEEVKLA

IC50 (human recombinant HDAC1; [1]) [nM]	HDAC6 selectivity (fold) (human recombinant HDAC6; HDAC1 IC50 / HDAC6 IC50)	IC50 (human recombinant HDAC6; [2]) [nM]	IC50 (human recombinant HDAC1; [3]) [nM]	HDAC6 selectivity (fold) (human recombinant HDAC6; HDAC6 over HDAC1)	IC50 (human recombinant HDAC6; [4]) [nM]	SMILES
> 50000	1510	33.1	–	–	–	CC(=O)N1CCC(Nc2cccc(-c3cn(Cc4ccc(-c5nnc(C(F)F)o5)cc4F)nn3)c2F)CC1 [Compound 4433, 1-(4-((3-(1-(4-(5-(difluoromethyl)-1,3,4-oxadiazol-2-yl)-2-fluorobenzyl)-1H-1,2,3-triazol-4-yl)-2-fluorophenyl)amino)piperidin-1-yl)ethan-1-one]
–	–	–	> 50000	2032	24.6	CCN1CCN(c2cccc(-c3cn(Cc4ccc(-c5nnc(C(F)F)o5)cc4F)nn3)n2)CC1 [Compound 17362, 2-(difluoromethyl)-5-(4-((4-(6-(4-ethylpiperazin-1-yl)pyridin-2-yl)-1H-1,2,3-triazol-1-yl)methyl)-3-fluorophenyl)-1,3,4-oxadiazole]
> 50000	896	55.8	–	–	–	Fc1cccnc1-c1cn(Cc2ccc(-c3nnc(C(F)F)o3)cn2)nn1 [Compound 4178]
> 50000	268	186	–	–	–	Fc1cc(-c2nnc(C(F)F)o2)ccc1Cn1cc(-c2cccc(NC3CCCCC3)c2)nn1 [Compound 4330, N-cyclohexyl-3-(1-(4-(5-(difluoromethyl)-1,3,4-oxadiazol-2-yl)-2-fluorobenzyl)-1H-1,2,3-triazol-4-yl)aniline]
> 50000	1694	29.5	–	–	–	FC(F)c1nnc(-c2ccc(Cn3cc(-c4cccc(CN5CCCC5)c4)nn3)nc2)o1 [Compound 3966, 2-(difluoromethyl)-5-(6-((4-(3-(pyrrolidin-1-ylmethyl)phenyl)-1H-1,2,3-triazol-1-yl)methyl)pyridin-3-yl)-1,3,4-oxadiazole]
> 50000	765	65.3	–	–	–	FC(F)c1nnc(-c2ccc(Cn3cc(-c4cccc(N5CCOCC5)c4)nn3)cc2)o1 [Compound 4338, 4-(3-(1-(4-(5-(difluoromethyl)-1,3,4-oxadiazol-2-yl)benzyl)-1H-1,2,3-triazol-4-yl)phenyl)morpholine]
> 50000	1046	47.8	–	–	–	O=C(Nc1cccc(-c2cn(Cc3ccc(-c4nnc(C(F)F)o4)cn3)nn2)c1)C1CNC1 [Compound 4463, N-(3-(1-((5-(5-(difluoromethyl)-1,3,4-oxadiazol-2-yl)pyridin-2-yl)methyl)-1H-1,2,3-triazol-4-yl)phenyl)azetidin-3-carboxamide]
> 50000	618	80.9	–	–	–	Fc1cc(-c2nnc(C(F)F)o2)ccc1Cn1cc(-c2cccc(C3CCN(C4COC4)CC3)c2)nn1 [Compound 4293, 2-(difluoromethyl)-5-(3-fluoro-4-((4-(3-(1-(oxetan-3-yl)piperidin-4-yl)phenyl)-1H-1,2,3-triazol-1-yl)methyl)phenyl)-1,3,4-oxadiazole]
> 50000	1259	39.7	–	–	–	CCN1CCN(Cc2cccc(-c3cn(Cc4ccc(-c5nnc(C(F)F)o5)cc4F)nn3)c2)CC1 [Compound 4407, 2-(difluoromethyl)-5-(4-((4-(3-((4-ethylpiperazin-1-yl)methyl)phenyl)-1H-1,2,3-triazol-1-yl)methyl)-3-fluorophenyl)-1,3,4-oxadiazole]
–	–	–	> 50000	1592	31.4	Fc1cc(-c2nnc(C(F)F)o2)cnc1Cn1cc(-c2cccc3[nH]ccc23)nn1 [Compound 18921, 2-(6-((4-(1H-indol-4-yl)-1H-1,2,3-triazol-1-yl)methyl)-5-fluoropyridin-3-yl)-5-(difluoromethyl)-1,3,4-oxadiazole]
> 50000	81	613	–	–	–	CCN1CC(c2cn(Cc3ccc(-c4nnc(C(F)F)o4)cn3)nn2)C1 [Compound 3951, 2-(difluoromethyl)-5-(6-((4-(1-ethylazetidin-3-yl)-1H-1,2,3-triazol-1-yl)methyl)pyridin-3-yl)-1,3,4-oxadiazole]
> 50000	137	363	–	–	–	CC(C)(F)CN1CCC(c2cccc(-c3cn(Cc4ccc(-c5nnc(C(F)F)o5)cc4F)nn3)c2)CC1 [Compound 4349, 2-(difluoromethyl)-5-(3-fluoro-4-((4-(3-(1-(2-fluoro-2-methylpropyl)piperidin-4-yl)phenyl)-1H-1,2,3-triazol-1-yl)methyl)phenyl)-1,3,4-oxadiazole]
–	–	–	> 50000	582	85.9	Fc1cc(-c2nnc(C(F)F)o2)ccc1Cn1cc(-c2cccs2)nn1 [Compound 18258, 2-(difluoromethyl)-5-(3-fluoro-4-((4-(thiophen-2-yl)-1H-1,2,3-triazol-1-yl)methyl)phenyl)-1,3,4-oxadiazole]
–	–	–	> 50000	1190	42	Fc1cc(-c2nnc(C(F)F)o2)cnc1Cn1cc(-c2ccc3[nH]ncc3c2)nn1 [Compound 18920, 2-(6-((4-(1H-indazol-5-yl)-1H-1,2,3-triazol-1-yl)methyl)-5-fluoropyridin-3-yl)-5-(difluoromethyl)-1,3,4-oxadiazole]
–	–	–	> 50000	2032	24.6	FC(F)c1nnc(-c2ccc(Cn3cc(-c4cccc(C5CN(C6COC6)C5)c4)nn3)nc2)o1 [Compound 4505, 2-(difluoromethyl)-5-(6-((4-(3-(1-(oxetan-3-yl)azetidin-3-yl)phenyl)-1H-1,2,3-triazol-1-yl)methyl)pyridin-3-yl)-1,3,4-oxadiazole]
> 50000	844	59.2	–	–	–	CC(C)(C)OC(=O)N1CCC(c2cn(Cc3ccc(-c4nnc(C(F)F)o4)cn3)nn2)CC1 [Compound 3805, tert-butyl 4-(1-((5-(5-(difluoromethyl)-1,3,4-oxadiazol-2-yl)pyridin-2-yl)methyl)-1H-1,2,3-triazol-4-yl)piperidin-1-carboxylate]
–	–	–	> 50000	1470	34	CC(C)N1Cc2ccc(-c3cn(Cc4ccc(-c5nnc(C(F)F)o5)cn4)nn3)cc2C1 [Compound 4541, 2-(difluoromethyl)-5-(6-((4-(2-isopropylisoindolin-5-yl)-1H-1,2,3-triazol-1-yl)methyl)pyridin-3-yl)-1,3,4-oxadiazole]
> 50000	375	133	–	–	–	CCN1CCC(F)(c2cn(Cc3ccc(-c4nnc(C(F)F)o4)cn3)nn2)CC1 [Compound 4006, 2-(difluoromethyl)-5-(6-((4-(1-ethyl-4-fluoropiperidin-4-yl)-1H-1,2,3-triazol-1-yl)methyl)pyridin-3-yl)-1,3,4-oxadiazole]
–	–	–	> 50000	682	73.3	FC(F)c1nnc(-c2ccc(Cn3cc(-c4ccc(CNC5COC5)cc4)nn3)cc2)o1 [Compound 4556, N-(4-(1-(4-(5-(difluoromethyl)-1,3,4-oxadiazol-2-yl)benzyl)-1H-1,2,3-triazol-4-yl)benzyl)oxetan-3-amine]
